Measurements reported in PubChem BioAssay AID1996.
In brackets after ≈: the same amount, converted by molar mass.

Conditions: buffer; pH 7.4; 200.0 µM

Compound | solubility kinetic [µg/mL]
O=C(CNC(=O)c1ccccc1)Oc1ccc([N+](=O)[O-])cc1 | > 45
Cc1ccccc1OCC(=O)OC(C)C(=O)NC1CCCC1 (stereo unspecified) | > 45.8
COc1ccccc1/C=C/C1NC(=O)NC(C)=C1C(=O)OC(C)C (stereo unspecified) | 0.4 (≈ 1.21 µM)
Cc1c(C(=O)C(=O)N2CCN(C)CC2)c2ccccc2n1C | > 44.9
CSCCC(=O)N1CCCC(N(C)CCc2ccccc2)C1 (stereo unspecified) | 41.7 (≈ 130 µM)
Fc1cnc(Cl)nc1N1CCN(c2ccccc2)CC1 | 17.4 (≈ 59.4 µM)
CC(C)C(C)(C#N)NC(=O)CN1C(=O)NC2(CCCc3ccccc32)C1=O (stereo unspecified) | > 55.3
O=C1CCC(C(=O)N2CCOCC2)CN1Cc1ccc(Cl)cc1 (stereo unspecified) | > 50.5
N/C(=N\OC(=O)c1ccc(Cl)cc1[N+](=O)[O-])c1ccccn1 | 3 (≈ 9.35 µM)
COc1ccc(CCNC(=O)c2ccc(C)s2)cc1OC | > 45.8
CSc1ccc(C(=O)NCC(c2ccco2)N(C)C)cc1[N+](=O)[O-] (stereo unspecified) | > 52.4
COc1ccccc1NC(=O)c1cc(=O)[nH]c2ccccc12 | 29.7 (≈ 101 µM)
N/C(=N\OC(=O)c1ccccc1)c1ccncc1 | 34.8 (≈ 144 µM)
COc1cccc(CNC(=O)CNC(=O)c2cccs2)c1 | > 45.7
O=C1Nc2ccc3sc4ccccc4c3c2C1=O | 0.6 (≈ 2.37 µM)
O=C(COc1ccccc1)Nc1ccccc1F | 32.7 (≈ 133 µM)
CCOc1ccc2[nH]c3c(N4CCC5(CC4)OCCO5)ncnc3c2c1 | 4 (≈ 11.3 µM)
O=c1cnc2ccccc2n1Cc1ccc(Br)cc1 | 2.7 (≈ 8.57 µM)
COc1ccc(CCc2nc(-c3cccs3)no2)cc1 | 2.3 (≈ 8.03 µM)
COc1ccccc1C(=O)Nc1cccc2cccnc12 | < 0.3
Fc1ccc(OCc2nc(-c3cccs3)no2)cc1 | 0.8 (≈ 2.9 µM)
Cc1cc(C(=O)N(CCC#N)Cc2cccs2)no1 | > 41.3
O=C(NCc1ccccc1Cl)c1cc(C(=O)C2CC2)c[nH]1 | < 0.3
Cc1cccc(NC(=O)c2c(-c3ccccc3)noc2C)n1 | 34.9 (≈ 119 µM)

Compound | solubility kinetic [µg/mL]
Cc1ccc(C(=O)C2=C(O)C(=O)N(c3ncccn3)C2c2ccc(F)cc2)o1 (stereo unspecified) | > 56.9
Cc1cnc(C(=O)OCC(=O)c2c[nH]c3ccccc23)cn1 | 13.7 (≈ 46.4 µM)
CCc1nc(SCC(=O)O)c(C#N)c2c1CCCC2 | > 41.5
CCCCCCOc1ccc(C(=O)NCCCn2ccnc2)cc1 | > 49.4
Cc1ccc(CNC(=O)CCCN2C(=S)NC(C)(C)CC2C)cc1 (stereo unspecified) | 37 (≈ 106 µM)
CC(=O)c1ccc(/C=C/c2nc3ccccc3n2C)o1 | > 39.9
COc1cccc(C(=O)c2c[nH]c(C(=O)NCc3cccnc3)c2)c1 | > 50.3
Cc1ccc(OCc2ccccc2Br)c([N+](=O)[O-])n1 | 1.7 (≈ 5.26 µM)
COc1ccc(C(=O)Nc2ccc(NC(=O)c3ccccc3F)cn2)cc1 | 1 (≈ 2.74 µM)
Cc1cc(C)n(-c2c(C)[nH]c3ccccc23)n1 | > 33.8
O=C(N/C(=C\c1ccco1)C(=O)N1CCC(O)CC1)c1ccccc1 | 41.1 (≈ 121 µM)
Cc1cc(/C(N)=N/OC(=O)c2ccc(Cl)cc2)no1 | 1.6 (≈ 5.72 µM)
Cc1ccc(O)c(CNc2cnc3ccccc3c2)c1 | 18.1 (≈ 68.5 µM)
CCOc1ccc(OCC)c(S(=O)(=O)NCc2ccccc2)c1 | 40.7 (≈ 121 µM)
CNC(=O)C1CC(=O)N(CCc2ccc(C)cc2)C1 (stereo unspecified) | > 39.1
CN(Cc1nc2ccccc2c(=O)[nH]1)C(=O)c1cc2c(s1)CCCCC2 | 4.8 (≈ 13.1 µM)
O=C(OCC(O)COc1ccccc1)c1ccc([N+](=O)[O-])cc1 (stereo unspecified) | 43.7 (≈ 138 µM)
O=S(=O)(Oc1ccccc1N1CCCCC1)c1ccccc1 | 2.3 (≈ 7.25 µM)
COc1ccc(/C=C/C(=O)OCC(=O)NCCc2ccccc2)c(OC)c1 | 8.5 (≈ 23 µM)
O=c1c2ccccc2[nH]c(=S)n1CCCn1ccnc1 | 19.4 (≈ 67.7 µM)
COc1cccc2cc(C(=O)OCC(=O)NC3CCCC(C)C3C)c(=O)oc12 (stereo unspecified) | 13.7 (≈ 35.4 µM)
Cc1ccc(S(=O)(=O)N(C)C)cc1NC(=O)C(C)OC(=O)C1CCC1 (stereo unspecified) | > 55.3
Cc1cc(OC(=O)c2ccc(OC(C)C)cc2)c([N+](=O)[O-])c(=O)[nH]1 | > 49.8
CCn1c(SCC(=O)OC)nnc1-c1ccc(C)cc1 | > 43.7

Compound | solubility kinetic [µg/mL]
CCOc1ccc(Nc2ccnc3cc(Cl)ccc23)cc1 | < 0.3
Cc1cc2c(SCC(=O)NC3CCCC3)ncnc2s1 | 30.2 (≈ 98.2 µM)
O=C(COC(=O)c1ccccc1Cl)NCc1ccco1 | > 44.1
Cc1cccc(NC(=O)CCS(=O)(=O)c2ccccc2)n1 | > 45.7
O=C(O)c1cc(O)ccc1NC(=O)c1cccc2ccccc12 | > 46.1
CCC(Oc1ccccc1C)C(=O)N1CCCN(C)CC1 (stereo unspecified) | > 43.6
O=C(NC(=S)N1CCN(c2ccc(O)cc2)CC1)c1ccco1 | > 49.7
O=[N+]([O-])c1ccc(Sc2cccc3cccnc23)c2cccnc12 | < 0.2
O=C(NCCc1csc(-c2ccccc2)n1)c1ccccc1F | 40.2 (≈ 123 µM)
Cc1[nH]c2c(ccc3cccnc32)c1C | 19.4 (≈ 98.9 µM)
NC(=O)c1ccc(SCC(=O)NC2CCCCC2)c([N+](=O)[O-])c1 | 14.7 (≈ 43.6 µM)
COc1ccc(C(NC(=O)CC(C)C)c2c(O)ccc3ccccc23)cc1 (stereo unspecified) | < 0.8
O=C(COC(=O)c1cccc(N2C(=O)C3CC=CCC3C2=O)c1)c1ccccc1 (stereo unspecified) | 3.2 (≈ 8.22 µM)
CCCOC(=O)c1ccc(NC(=O)Cc2cccs2)cc1 | 24 (≈ 79.1 µM)
O=C(NCC(O)c1ccc([N+](=O)[O-])cc1)Nc1ccccc1 (stereo unspecified) | 42 (≈ 139 µM)
O=C(COC(=O)c1ccc(F)cc1F)NCc1ccc2c(c1)OCO2 | 4.9 (≈ 14 µM)
CN1CCC(N(C)C(=O)c2cc(-c3ccc(F)cc3)nc3ccccc23)CC1.Cl | > 62.1
Cc1ccc(NC(=O)CN2c3cccc4cccc(c34)S2(=O)=O)cc1 | 3.8 (≈ 10.8 µM)
O=S(=O)(NCCN1CCCC1)c1ccc(Cl)cc1 | 40.8 (≈ 141 µM)
COc1cc(OC)cc(C(=O)N[C@H](C(=O)NC2=NCCS2)C(C)C)c1 | > 54.8
Cc1ccc(C2CC(=O)NC(SCC(N)=O)=C2C#N)s1 (stereo unspecified) | > 46.1
CC(OC(=O)CN1C(=O)c2ccccc2C1=O)C(=O)NC1CCCCC1 (stereo unspecified) | > 53.8
CC1=C(C)CC(C(=O)NCCc2ccc(F)cc2)C(C(=O)O)C1 (stereo unspecified) | > 47.9
COc1cc(OC)c(CNC2CCCCCC2)cc1Br | > 51.3

Compound | solubility kinetic [µg/mL]
Cc1cc2oc(=O)cc(CN(C)Cc3cccc(F)c3)c2cc1C | 1.2 (≈ 3.69 µM)
O=C1COc2ccc(C(=O)COC(=O)Cc3ccccc3F)cc2N1 | 24 (≈ 69.9 µM)
NC(=O)C1CCN(S(=O)(=O)c2ccc3c(c2)OCCO3)CC1 | > 49
Cc1cccc(NC(=O)c2cccc(NC(=O)c3ccco3)c2)c1C | 0.5 (≈ 1.5 µM)
Cc1cc(C)c(O)c(NC(=S)NC(=O)Cc2ccccc2)c1 | 3.9 (≈ 12.4 µM)
O=C(CSc1ncnc2ccccc12)NCc1ccc2c(c1)OCO2 | 10.1 (≈ 28.6 µM)
CCOC(=O)C1CCCN(C(=O)Nc2c(-c3ccccc3)noc2C)C1 (stereo unspecified) | 52.4 (≈ 147 µM)
O=S(=O)(Nc1cccc(S(=O)(=O)N2CCCCC2)c1)c1ccc(Cl)s1 | > 63.1
COc1ccc(C(C)(C)C)cc1NC(=O)CCN1C(=O)NC(C)(C)C1=O | 52.7 (≈ 146 µM)
COc1ccc(NS(=O)(=O)c2ccc(C(=O)N3CCN(c4ccc(F)cc4)CC3)cc2)cc1 | 12.1 (≈ 25.8 µM)
CC(C)c1ccc(NC(=O)c2ccccc2NC(=O)C2CCCCC2C(=O)O)cc1 (stereo unspecified) | 55.3 (≈ 135 µM)
Cc1cccc(C)c1OP(N)(=O)Oc1c(C)cccc1C | 10.8 (≈ 35.4 µM)
CN(C)C(=O)c1ccc(NC(=O)c2sccc2-c2ccccc2)cc1 | 49.1 (≈ 140 µM)
CCOC(=O)c1sc(NC(=O)C2CCCCC2)nc1C | 5 (≈ 16.9 µM)
O=S(=O)(Cc1ccccc1)NCCc1cccc(Cl)c1 | 40.5 (≈ 131 µM)
O=C(CCc1c[nH]c2ccccc12)NCCc1ccc2c(c1)OCCO2 | 44.4 (≈ 127 µM)
O=S(=O)(NC1=NCCCCC1)c1ccccc1Cl | > 43
O=[N+]([O-])c1cc(C(F)(F)F)ccc1NC1CCN(Cc2ccccc2)C1 (stereo unspecified) | 1.7 (≈ 4.65 µM)
COc1ccc(NC(=O)CSCC(=O)N=c2sccn2C)cc1 | 49.9 (≈ 142 µM)
CCC1CCCCN1CC(=O)c1c(C)[nH]c2cc(C)ccc12 (stereo unspecified) | 33 (≈ 111 µM)
CC(=O)NC(c1ccccc1)c1cc(Cl)c2cccnc2c1O (stereo unspecified) | 0.4 (≈ 1.22 µM)
CN(CCc1ccccc1)Cc1nc(-c2cnccn2)no1 | 44 (≈ 149 µM)
COc1ccc(OC)c(NC(=O)COC(=O)[C@H](Cc2ccccc2)NC(=O)c2ccco2)c1 | 5.7 (≈ 12.6 µM)
COc1nc(N(C)C)nc(N(C)c2cc(Cl)cc(Cl)c2)n1 | 0.4 (≈ 1.22 µM)

Compound | solubility kinetic [µg/mL]
CC1(C)C(=O)N(c2ccccc2Cl)C(=O)c2ccccc21 | 44.3 (≈ 148 µM)
COc1ccc(NC(=O)CN2CCN(C(C)=O)CC2)cc1S(=O)(=O)N1CCOCC1 | > 66.1
COc1ccc(CN=Cc2c(C(=O)O)[nH]c3ccccc23)cc1 | > 46.3
COc1cc([N+](=O)[O-])ccc1NC(=O)COC(=O)c1c[nH]c(=O)[nH]c1=O | > 54.6
COc1cc2c(cc1OC)C(C)N(C(=O)Nc1ccc(F)cc1)CC2 (stereo unspecified) | 18.4 (≈ 53.4 µM)
Cn1c(=O)c(C(=O)NC2CCCCCC2)c(O)c2ccccc21 | < 0.3
CC1CCN(S(=O)(=O)c2ccc(Cl)s2)CC1 | 15.3 (≈ 54.7 µM)
CC(Oc1ccc(Cl)cc1C(N)=O)C(=O)N1CCc2ccccc21 (stereo unspecified) | 9.6 (≈ 27.8 µM)
Cn1cnc(S(=O)(=O)Nc2ccccc2C(=O)NCC2CC2)c1 | > 50.2
CC(=O)NC1CCN(CC(=O)Nc2nccs2)CC1 | 40.5 (≈ 143 µM)
O=c1[nH]c2cc(NCCO)c([N+](=O)[O-])cc2[nH]1 | > 35.7
CSc1ncc(Cl)c(C(=O)Nc2c(C)cccc2C)n1 | 2.3 (≈ 7.47 µM)
O=C(CN1CCOCC1)Nc1cc(C(F)(F)F)ccc1Cl | 39.2 (≈ 121 µM)
CCC(C)(C)c1ccc(OC(=O)c2cccnc2Cl)cc1 | < 0.7
O=C(Nc1ccccc1)N1CCN(C(=O)Nc2ccccc2)CC1 | 3.1 (≈ 9.56 µM)
COCC1CCCN(C(=O)c2ccc3oc(C(C)C)nc3c2)C1 (stereo unspecified) | 42.2 (≈ 133 µM)
O=C(c1cccc(OCc2ccccc2)c1)N1CCOCC1 | 42.9 (≈ 144 µM)
Fc1ccc(Nc2ccnc(C(F)(F)F)c2)cc1 | 25.7 (≈ 100 µM)
CC(C)CNC(=O)COC(=O)C1c2ccccc2Oc2ccccc21 | 41.4 (≈ 122 µM)
C[C@H](NS(=O)(=O)c1ccc(Cl)cc1)C(=O)OCC(=O)N1CCOCC1 | 55.9 (≈ 143 µM)
